Here are results for five compounds from patent US6281211A, “Substituted semicarbazides and the use thereof” (Euro-Celtique S.A., priority 2000, dated 2001).

What is called ED50 is the dose at which the effect has come halfway, by size or by number of responders.

Assay [1] deals with maximal electroshock-induced seizures (MES). In words: maximal electroshock-induced seizures (MES) test in mice. It counts as in vivo. The note with it: Mus musculus. As to the method: The compounds of the present invention may be tested for in vivo anticonvulsant activity after iv. po or ip injection using a number of anticonvulsant tests in mice (audiogenic seizure model in DBA-2 mice, pentylenetetrazol-induced seizures in mice, maximum electroshock seizure test (MES)).
The ability of 1-[4-(4-fluorophenoxy)benzyl]semicarbazide to block maximal electroshock-induced seizures (MES) was determined by the following procedure.
Seizures were induced by application of current (50 mA, 60 pulses/sec, 0.8 msec pulse width, 1 sec duration, D.C.) using a Ugo Basile ECT device (model 7801). Mice were restrained by gripping the loose skin on their dorsal surface and saline-coated corneal electrodes were held lightly against the two cornea. […] A tonic seizure was defined as a hindlimb extension in excess of 90 degrees from plane of the body.
1-[4-(4-Fluorophenoxy)benzyl]semicarbazide was administered iv to mice 10 min before the test procedure.
For orientation: Protection in the maximal electroshock model is a classic sign of anticonvulsant action.

The next assay addresses T1, hSkM1 sodium channels (Homo sapiens, UniProt P35499).
T1 construct: expressed in transfected cells
The experiment in a line: Electrophysiological assay: whole-cell patch-clamp recordings of voltage-gated Na+ currents in HEK-293 cells stably expressing hSkM1. It counts as cell-based. On the procedure: Electrophysiological Assay:
Cellpreparation: HEK-293 cells stably expressing the hSkM1 isoform of Na^+ channels (generous gift from Dr. A. L. George, Vanderbilt University Medical School) were cultured using standard techniques, as described previously (Verdoorn, T. A, et al., Neuron 4:919-928 (1990)). For electrophysiology, cells were plated onto 35 mm Petri dishes (pre-coated with poly-D-lysine) at a density of 1:40 on the day of re-seeding from confluent cultures. Cells are suitable for recordings for 2-3 days after plating.
Patch-clamp recordings of voltage-sensitive Na^+ currents: Whole-cell voltage-clamp recordings were made using conventional patch-clamp techniques (Hamill et al, Pfluegers Arch. 391:85-100 (1981)) with an Axopatch 200 A amplifier (Axon Instruments, Foster City, Calif.). Recordings were made within 2-3 hours after neuron dissociation. The recording chamber was continuously superfused with the external solution (150 mM NaCl, 5.4 mM KCl, 1.8 mM CaCl2, 1 mM MgCl2, 10 mM HEPES, 10 mM glucose, pH 7.4 (NaOH)) at a speed of about 1 ml/min. Recording pipettes were pulled from thick-walled capillaries (WPI, Sarasota, Fla.) and fire-polished. The pipette resistances ranged from 1 to 3 M.OMEGA. when the pipettes were filled with internal solution containing (in mM): 110 CsF, 10 NaCl, 5 MgCl2, 11 EGTA, 10 HEPES, pH adjusted to 7.4 with CsOH. Osmolality was set with a difference of 15-20 mmol/kg between external and internal solutions (lower inside the cell). Drugs and intervening wash-outs were applied through a linear array of flow pipes (Drummond Microcaps, 2-μl, 64-mm length). Compounds are dissolved in dimethylsulfoxide (DMSO) to make a […] stock solution, which was subsequently diluted into the external solution to give final concentrations of 0.1-100 μM. At the highest (1%) concentration, DMSO inhibited the size of Na^+ current only slightly. Currents were recorded at room temperature (22-25° C.), filtered at 5 kHz with an active 8-pole Bessel filter (Frequency Devices, Haverhill, Mass.), digitized at 10-50-μs intervals, and stored using Digidata 1200 analog/digital interface with Pclamp6/Clampex software (Axon Instruments).Series resistance was cancelled typically by ~75% when necessary. The inhibitory potency of drugs was assessed by measuring reductions in the peak amplitude of Na^+ currents induced by increasing concentrations of compounds tested. Na^+ currents were elicited by stepping membrane voltage from holding potentials over the range -100 mV to -50 mV, to a pulse potential of -10 mV. The test pulse duration was 5-10 msec, repeated at a frequency ≤1 Hz. Concentration-inhibition curves were fitted with equation 1:
I/Icontrol =1/(1+([compound]/IC50)) Eq. 1 […]
(In patch-clamp work, channel activity is measured electrically.)

Assay [2] concerns global and focal ischemia. The note with it: animal models of global and focal ischemia; cited from earlier work.
The test system of a further assay is ALS. Particulars: subset of patients with ALS; cited from earlier work.
[3] abbreviates: HEK-293 cells stably expressing hSkM1.

Read-outs that look alike come from different tables or passages of the source.

T1 sequence (P35499 whole entry): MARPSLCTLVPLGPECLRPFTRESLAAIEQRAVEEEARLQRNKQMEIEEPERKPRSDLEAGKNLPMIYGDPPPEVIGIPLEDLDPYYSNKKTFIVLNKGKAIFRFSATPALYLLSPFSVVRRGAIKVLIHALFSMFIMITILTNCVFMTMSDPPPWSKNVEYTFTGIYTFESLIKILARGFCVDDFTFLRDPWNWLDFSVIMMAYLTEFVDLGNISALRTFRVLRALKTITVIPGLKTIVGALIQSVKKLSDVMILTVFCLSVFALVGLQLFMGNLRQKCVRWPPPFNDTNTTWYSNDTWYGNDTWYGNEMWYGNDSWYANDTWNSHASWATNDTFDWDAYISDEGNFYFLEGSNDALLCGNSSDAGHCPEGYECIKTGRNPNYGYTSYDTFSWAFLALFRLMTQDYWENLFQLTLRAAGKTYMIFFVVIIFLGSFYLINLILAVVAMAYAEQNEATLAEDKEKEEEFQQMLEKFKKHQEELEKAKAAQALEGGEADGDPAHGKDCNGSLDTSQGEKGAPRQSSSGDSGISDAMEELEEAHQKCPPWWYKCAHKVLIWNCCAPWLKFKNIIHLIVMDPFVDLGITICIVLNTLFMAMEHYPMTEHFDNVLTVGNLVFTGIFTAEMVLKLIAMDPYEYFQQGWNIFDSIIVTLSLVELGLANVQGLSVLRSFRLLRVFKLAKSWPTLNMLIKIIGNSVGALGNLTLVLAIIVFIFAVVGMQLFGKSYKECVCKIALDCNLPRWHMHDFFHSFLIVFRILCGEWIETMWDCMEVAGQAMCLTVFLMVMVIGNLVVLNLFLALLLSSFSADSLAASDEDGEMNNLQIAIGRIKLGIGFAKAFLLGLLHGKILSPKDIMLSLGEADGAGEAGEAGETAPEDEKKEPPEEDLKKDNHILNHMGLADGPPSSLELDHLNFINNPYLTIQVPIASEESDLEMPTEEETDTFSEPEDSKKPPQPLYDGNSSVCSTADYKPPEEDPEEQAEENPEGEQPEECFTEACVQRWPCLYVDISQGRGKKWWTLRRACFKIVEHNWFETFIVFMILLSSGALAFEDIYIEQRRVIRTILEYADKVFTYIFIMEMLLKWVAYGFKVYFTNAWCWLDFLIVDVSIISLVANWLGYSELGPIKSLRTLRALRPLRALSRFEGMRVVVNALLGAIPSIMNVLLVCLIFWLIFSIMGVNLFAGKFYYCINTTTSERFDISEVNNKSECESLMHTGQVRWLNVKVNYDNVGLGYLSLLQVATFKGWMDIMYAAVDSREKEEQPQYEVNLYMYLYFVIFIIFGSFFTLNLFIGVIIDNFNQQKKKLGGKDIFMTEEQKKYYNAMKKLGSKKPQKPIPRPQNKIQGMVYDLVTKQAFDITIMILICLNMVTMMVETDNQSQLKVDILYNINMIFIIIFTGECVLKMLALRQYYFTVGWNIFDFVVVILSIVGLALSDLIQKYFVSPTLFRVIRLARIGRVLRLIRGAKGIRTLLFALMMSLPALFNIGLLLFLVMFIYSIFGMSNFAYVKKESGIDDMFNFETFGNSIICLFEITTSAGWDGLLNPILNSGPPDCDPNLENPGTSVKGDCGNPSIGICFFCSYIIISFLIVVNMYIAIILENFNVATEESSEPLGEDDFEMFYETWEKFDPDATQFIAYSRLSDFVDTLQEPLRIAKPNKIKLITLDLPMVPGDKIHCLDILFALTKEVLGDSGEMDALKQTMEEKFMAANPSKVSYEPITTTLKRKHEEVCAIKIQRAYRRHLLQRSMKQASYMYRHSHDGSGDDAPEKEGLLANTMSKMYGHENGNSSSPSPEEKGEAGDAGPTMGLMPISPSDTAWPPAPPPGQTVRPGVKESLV

On to `NC(=O)NNCc1ccc(Oc2ccc(F)cc2)c(F)c1` [1-[3-Fluoro-4-(4-fluorophenoxy)benzyl]semicarbazide], for which, in assay [1] (po, read-out: ED50 against MES), the ED50 stood at 3.2 mg/kg. In the case of `NC(=O)NNCc1ccc(Oc2ccc(F)cc2)cc1` [1-[4-(4-Fluorophenoxy)benzyl]semicarbazide], in assay [1] (10 min, iv, 10 min before the test, read-out: ED50 (the dose protecting 50% of animals) against MES), the ED50 turned out to be 4.2 mg/kg. For the same compound, on hSkM1 sodium channels (setting [3]), the “inhibition of voltage-gated sodium currents” value is recorded as “dose-dependent inhibition” and the “sensitivity of blocking effect on Na+ currents to the holding voltage” value was “highly sensitive to the holding voltage”. Further, the Kd at hSkM1 sodium channels (inactivated sodium channels, read-out: apparent antagonist dissociation constant (Kd) for inactivated sodium channels) was ~7.5 µM. In addition, the “potency towards Na+ channels in their resting states” value at hSkM1 sodium channels (resting states) is recorded as “weak potency”. As to `CN1CCN(c2ncc(-c3cc(Cl)cc(Cl)c3Cl)c(N)n2)CC1` [BW619C89], the neuroprotective activity entry in assay [2] was “neuroprotective”.

For the compound `Cc1ccc(-c2nc(C)c(CN3CCN(C(c4ccccc4)c4ccccc4)CC3)[nH]2)cc1` [lifarizine], the neuroprotective activity entry in assay [2] is “neuroprotective”. As for `Nc1nc2ccc(OC(F)(F)F)cc2s1` [riluzole], the survival entry in the assay on ALS is “prolong survival”.
